Where a chain is given by its changes, count along the chain named.
How the values were obtained:
[1] = target: T1, FLAG-α1b-adrenoceptor-eYFP (Mesocricetus auratus, UniProt P18841); assay type: binding
T1 sequence (P18841 1-515): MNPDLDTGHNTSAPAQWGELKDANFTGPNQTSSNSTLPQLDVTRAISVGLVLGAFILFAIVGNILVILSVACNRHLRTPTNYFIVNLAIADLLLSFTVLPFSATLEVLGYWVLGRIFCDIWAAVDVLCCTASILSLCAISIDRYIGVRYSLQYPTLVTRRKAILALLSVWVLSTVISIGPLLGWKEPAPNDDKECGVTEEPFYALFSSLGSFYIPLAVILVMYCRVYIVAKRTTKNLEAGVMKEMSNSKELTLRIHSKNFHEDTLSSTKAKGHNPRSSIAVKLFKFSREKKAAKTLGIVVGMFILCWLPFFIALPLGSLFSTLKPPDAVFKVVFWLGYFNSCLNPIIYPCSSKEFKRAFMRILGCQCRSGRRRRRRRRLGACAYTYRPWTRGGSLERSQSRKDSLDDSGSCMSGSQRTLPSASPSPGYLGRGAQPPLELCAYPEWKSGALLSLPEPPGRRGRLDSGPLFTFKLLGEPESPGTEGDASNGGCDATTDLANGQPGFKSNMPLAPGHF

[2] = target: T2, FLAG-α1b-adrenoceptor TMI-TMIV-eYFP (Mesocricetus auratus, UniProt P18841, L166A/L167A/L65A/V66A); settings: pKi, [3H]prazosin competition binding
T2 sequence (P18841 1-515 L65A/V66A/L166A/L167A): T1 sequence (P18841 1-515) with L65A, V66A, L166A, L167A

[3] = target: T2, FLAG-α1b-adrenoceptor TMI-TMIV-eYFP; experiment: Intact cell anti-FLAG ELISA of cell surface receptor; assay type: cell-based; settings: for cell surface delivery of mutant receptor (anti-FLAG ELISA): 10^−5 M of each drug
[4] = target: T3, FLAG-α1b-adrenoceptor TMI-TMIV (Mesocricetus auratus, UniProt P18841, L166A/L167A/L65A/V66A); experiment: Sequential 3-colour FRET imaging; assay type: cell-based; settings: 10^−7 M, 12 h; transiently transfected HEK-293 cells
T3 sequence (P18841 1-515 L65A/V66A/L166A/L167A) 1: T1 sequence (P18841 1-515) with L65A, V66A, L166A, L167A
T3 sequence (P18841 1-515 L65A/V66A/L166A/L167A) 2: T1 sequence (P18841 1-515) with L65A, V66A, L166A, L167A
T3 sequence (P18841 1-515 L65A/V66A/L166A/L167A) 3: T1 sequence (P18841 1-515) with L65A, V66A, L166A, L167A

[5] = target: T2, FLAG-α1b-adrenoceptor TMI-TMIV-eYFP; assay type: cell-based; settings: pre-treated with 10^−7 M overnight, then extensively washed; 0.4 nM [3H]prazosin

## CNC[C@H](O)c1ccc(O)c(O)c1 [adrenaline]
[1]
  Ki: 501 nM
[2]
  Ki: 63.1 nM

## O=C(c1ccc(F)cc1)C1CCN(CCn2c(=O)[nH]c3ccccc3c2=O)CC1 [ketanserin]
[3]; overnight treatment
  cell surface delivery of mutant receptor (anti-FLAG ELISA): significant cell surface delivery

## COc1cc2nc(N3CCN(C(=O)c4ccco4)CC3)nc(N)c2cc1OC [prazosin]
[4]
  sequential FRET signal (eCFP to dsRed2 FRET): increased
[3]; overnight treatment
  cell surface delivery of mutant receptor (anti-FLAG ELISA): most effective ligand tested
  concentration of maximum effect on cell surface mutant receptor: 10^−7 M
[3]; results not shown
  incubation time for maximum effect on cell surface mutant receptor: 14 to 16 h
[5]
  cell surface mutant receptor by intact cell [3H]prazosin binding: marked increases of cell surface FLAG-α1b-adrenoceptor TMI-TMIV-eYFP

## Cc1nc2sccn2c(=O)c1CCN1CCC(=C(c2ccc(F)cc2)c2ccc(F)cc2)CC1 [ritanserin]
[3]; overnight treatment
  cell surface delivery of mutant receptor (anti-FLAG ELISA): only ketanserin caused significant cell surface delivery
